Values after ≈ are worked out from the molar mass of the structure shown. Values belong to the compound of their own block, whether it stands above or below them. Numbered stars: 1 amine (or outer) side, 2 acyl side, 3 side chain; on linkers, the order of the positions; unused ones are H or OH. Square brackets hold non-standard residues; d marks the D form. Peptide text beside a SMILES is read from it. * marks the point of attachment. ξ: configuration not given here. X1 = N=C1NCC(C(O)C(N[*:1])C(=O)[*:2])N1C1OC(CO)C(O)C(O)C1O; ξEnduracididine(βξ-OH,4'ξ) = N=C1NCC(C(O)C(N)C(=O)O)N1; X2 = OCC1OC(OC2C(CO)OC(*)C(O)C2O)C(O)C(O)C1O
What was measured:
Experiment in all cases: in vitro antibacterial evaluation, MIC by broth dilution
Type in all cases: cell-based
[1] = test system: Escherichia coli; conditions: 18 hours at 35° C.
Outline: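 Test organisms, which included recent clinical isolates resistant to methicillin, penicillin and/or vancomycin, were inoculated at 5×10^5 CFU/mL into Muller-Hinton II […] containing antibiotic at 64-0.06 μg/mL. Minimum inhibitory concentrations were then read as the lowest level inhibiting growth.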

[2] = test system: Enterococcus sp.; conditions: broth dilution, 18 hours at 35° C.; for MIC Enterococcus faecalis (GC 2242): strain GC 2242; for MIC Enterococcus faecalis (GC 4552): strain GC 4552
Outline: (§1)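 MIC = lowest antibiotic concentration preventing visible growth; inoculum 5×10^5 CFU/mL; drug range 64-0.06 μg/mL; Muller-Hinton II […]; NCCLS M7-A2 guidance.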

[3] = test system: Staphylococcus sp.; conditions: broth dilution, 18 hours at 35° C.
Outline: as §1

[4] = test system: Streptococcus sp.; conditions: broth dilution, 18 hours at 35° C.; for MIC Streptococcus agalactiae (GC 4564): strain GC 4564
Outline: as §1

[5] = Enterococcus faecalis (ATCC 29212)
[6] = Enterococcus faecalis (GC 4553)
[7] = Enterococcus faecalis (GC 4554)

MIC Escherichia coli (ATCC 25922) [1]: >128 µg/mL
MIC Escherichia coli (GC 4559) [1]: >128 µg/mL
MIC Escherichia coli (GC 4560) [1]: 128 µg/mL (≈ 99.9 µM)
MIC Enterococcus avium (GC 4558) ([2]; Enterococcus avium (GC 4558)): 128 µg/mL (≈ 99.9 µM)
MIC Enterococcus faecalis (ATCC 29212) [2, 5]: >128 µg/mL
MIC Enterococcus faecalis (GC 4553) [2, 6]: >128 µg/mL
MIC Enterococcus faecalis (GC 4554) [2, 7]: >128 µg/mL
MIC Enterococcus faecalis (GC 6189) ([2]; Enterococcus faecalis (GC 6189)): >128 µg/mL
MIC Enterococcus faecium (GC 2243) ([2]; Enterococcus faecium (GC 2243)): >128 µg/mL
MIC Enterococcus faecium (GC 4556) ([2]; Enterococcus faecium (GC 4556)): >128 µg/mL
MIC Enterococcus faecium (GC 4557) ([2]; Enterococcus faecium (GC 4557)): 128 µg/mL (≈ 99.9 µM)
MIC Enterococcus faecalis (ATCC 29212) ([2]; strain ATCC 29212): >128 µg/mL
MIC Enterococcus faecalis (GC 2242) [2]: >128 µg/mL
MIC Enterococcus faecium (GC 2243) ([2]; strain GC 2243): >128 µg/mL
MIC Enterococcus faecalis (GC 2691) ([2]; strain GC 2691): >128 µg/mL
MIC Enterococcus faecalis (GC 3059) ([2]; strain GC 3059): >128 µg/mL
MIC Enterococcus faecalis (GC 4552) [2]: >128 µg/mL
MIC Enterococcus faecalis (GC 4553) ([2]; strain GC 4553): >128 µg/mL
MIC Enterococcus faecalis (GC 4554) ([2]; strain GC 4554): >128 µg/mL
MIC Enterococcus faecium (GC 4556) ([2]; strain GC 4556): >128 µg/mL
MIC Enterococcus faecium (GC 4557) ([2]; strain GC 4557): 128 µg/mL (≈ 99.9 µM)
MIC Enterococcus avium (GC 4558) ([2]; strain GC 4558): 128 µg/mL (≈ 99.9 µM)
MIC Enterococcus faecalis (GC 6189) ([2]; strain GC 6189): >128 µg/mL
MIC Coagulase Negative Staphylococcus (GC 4547) [3]: >128 µg/mL
MIC Coagulase Negative Staphylococcus (GC 4548) [3]: >128 µg/mL
MIC Coagulase Negative Staphylococcus (GC 4549) [3]: >128 µg/mL
MIC Coagulase Negative Staphylococcus (GC 4551) [3]: >128 µg/mL
MIC Staphylococcus aureus (ATCC 29213) [3]: >128 µg/mL
MIC Staphylococcus aureus (GC 1131) [3]: >128 µg/mL
MIC Staphylococcus aureus (GC 3051) [3]: >128 µg/mL
MIC Staphylococcus aureus (GC 3053) [3]: >128 µg/mL
MIC Staphylococcus aureus (GC 4541) [3]: >128 µg/mL
MIC Staphylococcus aureus (GC 4542) [3]: >128 µg/mL
MIC Staphylococcus aureus (GC 4544) [3]: >128 µg/mL
MIC Staphylococcus aureus (GC 4545) [3]: >128 µg/mL
MIC Staphylococcus aureus-SMITH (GC 4543) [3]: >128 µg/mL
MIC Staphylococcus aureus (ATCC 29213) ([3]; strain ATCC 29213): >128 µg/mL
MIC Staphylococcus aureus (GC 1131) ([3]; strain GC 1131): >128 µg/mL
MIC Staphylococcus aureus (GC 3051) ([3]; strain GC 3051): >128 µg/mL
MIC Staphylococcus aureus (GC 3053) ([3]; strain GC 3053): >128 µg/mL
MIC Staphylococcus aureus (GC 4541) ([3]; strain GC 4541): >128 µg/mL
MIC Staphylococcus aureus (GC 4542) ([3]; strain GC 4542): >128 µg/mL
MIC Staphylococcus aureus (GC 4544) ([3]; strain GC 4544): >128 µg/mL
MIC Staphylococcus aureus (GC 4545) ([3]; strain GC 4545): >128 µg/mL
MIC Coagulase Negative Staphylococcus (GC 4547) ([3]; strain GC 4547): >128 µg/mL
MIC Coagulase Negative Staphylococcus (GC 4548) ([3]; strain GC 4548): >128 µg/mL
MIC Coagulase Negative Staphylococcus (GC 4549) ([3]; strain GC 4549): >128 µg/mL
MIC Coagulase Negative Staphylococcus (GC 4551) ([3]; strain GC 4551): >128 µg/mL
MIC Staphylococcus aureus-SMITH (GC 4543) ([3]; strain SMITH GC 4543): >128 µg/mL
MIC Streptococcus pneumoniae (ATCC 6301) ([4]; strain ATCC 6301): 128 µg/mL (≈ 99.9 µM)
MIC Streptococcus pneumoniae (GC 1894) ([4]; strain GC 1894): 128 µg/mL (≈ 99.9 µM)
MIC Streptococcus pyogenes (GC 4563) ([4]; strain GC 4563): >128 µg/mL
MIC Streptococcus agalactiae (GC 4564) [4]: >128 µg/mL
MIC Streptococcus pneumoniae (GC 4565) ([4]; strain GC 4565): >128 µg/mL
SMILES: N=C1NCC(C(O)C2NC(=O)C(Cc3ccc(OC4OC(CO)C(OC5OC(CO)C(O)C(O)C5O)C(O)C4O)cc3)NC(=O)C(Cc3ccccc3)NC(=O)CNC(=O)C(CO)NC(=O)C(C(O)C3CNC(=N)N3C3OC(CO)C(O)C(O)C3O)NC2=O)N1 (stereo not drawn) [Example 282, Cyclo[glycylphenylalanyl-O-(4-O-hexopyranosylhexopyranosyl)tyrosyl-3-(2-iminomidazolidin-4-yl)seryl-3-(3-hexopyranosyl-2-iminoimidazolidin-4-yl)serylseryl]] (cyclo(GFY(X2)[ξEnduracididine(βξ-OH,4'ξ)][X1]S); configuration not given here)
MIC Staphylococcus haemolyticus (GC 4546) [3]: >128 µg/mL
MIC Staphylococcus haemolyticus (GC 4546) ([3]; strain GC 4546): >128 µg/mL

MIC Escherichia coli (ATCC 25922) [1]: >64 µg/mL
MIC Escherichia coli (GC 4559) [1]: >64 µg/mL
MIC Escherichia coli (GC 4560) [1]: 2 µg/mL (≈ 1.44 µM)
MIC Enterococcus avium (GC 4558) ([2]; Enterococcus avium (GC 4558)): 16 µg/mL (≈ 11.5 µM)
MIC Enterococcus faecalis (ATCC 29212) [2, 5]: 16 µg/mL (≈ 11.5 µM)
MIC Enterococcus faecalis (GC 4553) [2, 6]: 16 µg/mL (≈ 11.5 µM)
MIC Enterococcus faecalis (GC 4554) [2, 7]: 32 µg/mL (≈ 23 µM)
MIC Enterococcus faecium (GC 2243) ([2]; Enterococcus faecium (GC 2243)): 16 µg/mL (≈ 11.5 µM)
MIC Enterococcus faecium (GC 4556) ([2]; Enterococcus faecium (GC 4556)): 16 µg/mL (≈ 11.5 µM)
MIC Enterococcus faecium (GC 4557) ([2]; Enterococcus faecium (GC 4557)): 4 µg/mL (≈ 2.87 µM)
MIC Enterococcus faecalis (ATCC 29212) ([2]; strain ATCC 29212): 16 µg/mL (≈ 11.5 µM)
MIC Enterococcus faecalis (GC 2242) [2]: 16 µg/mL (≈ 11.5 µM)
MIC Enterococcus faecium (GC 2243) ([2]; strain GC 2243): 16 µg/mL (≈ 11.5 µM)
MIC Enterococcus faecalis (GC 4552) [2]: 16 µg/mL (≈ 11.5 µM)
MIC Enterococcus faecalis (GC 4553) ([2]; strain GC 4553): 16 µg/mL (≈ 11.5 µM)
MIC Enterococcus faecalis (GC 4554) ([2]; strain GC 4554): 32 µg/mL (≈ 23 µM)
MIC Enterococcus faecium (GC 4556) ([2]; strain GC 4556): 16 µg/mL (≈ 11.5 µM)
MIC Enterococcus faecium (GC 4557) ([2]; strain GC 4557): 4 µg/mL (≈ 2.87 µM)
MIC Enterococcus avium (GC 4558) ([2]; strain GC 4558): 16 µg/mL (≈ 11.5 µM)
MIC Coagulase Negative Staphylococcus (GC 4547) [3]: 2 µg/mL (≈ 1.44 µM)
MIC Coagulase Negative Staphylococcus (GC 4548) [3]: 2 µg/mL (≈ 1.44 µM)
MIC Coagulase Negative Staphylococcus (GC 4549) [3]: 2 µg/mL (≈ 1.44 µM)
MIC Coagulase Negative Staphylococcus (GC 4551) [3]: 4 µg/mL (≈ 2.87 µM)
MIC Staphylococcus aureus (ATCC 29213) [3]: 4 µg/mL (≈ 2.87 µM)
MIC Staphylococcus aureus (GC 1131) [3]: 4 µg/mL (≈ 2.87 µM)
MIC Staphylococcus aureus (GC 4541) [3]: 4 µg/mL (≈ 2.87 µM)
MIC Staphylococcus aureus (GC 4542) [3]: 4 µg/mL (≈ 2.87 µM)
MIC Staphylococcus aureus (GC 4544) [3]: 4 µg/mL (≈ 2.87 µM)
MIC Staphylococcus aureus (GC 4545) [3]: 4 µg/mL (≈ 2.87 µM)
MIC Staphylococcus aureus-SMITH (GC 4543) [3]: 4 µg/mL (≈ 2.87 µM)
MIC Staphylococcus aureus (ATCC 29213) ([3]; strain ATCC 29213): 4 µg/mL (≈ 2.87 µM)
MIC Staphylococcus aureus (GC 1131) ([3]; strain GC 1131): 4 µg/mL (≈ 2.87 µM)
MIC Staphylococcus aureus (GC 4541) ([3]; strain GC 4541): 4 µg/mL (≈ 2.87 µM)
MIC Staphylococcus aureus (GC 4542) ([3]; strain GC 4542): 4 µg/mL (≈ 2.87 µM)
MIC Staphylococcus aureus (GC 4544) ([3]; strain GC 4544): 4 µg/mL (≈ 2.87 µM)
MIC Staphylococcus aureus (GC 4545) ([3]; strain GC 4545): 4 µg/mL (≈ 2.87 µM)
MIC Coagulase Negative Staphylococcus (GC 4547) ([3]; strain GC 4547): 2 µg/mL (≈ 1.44 µM)
MIC Coagulase Negative Staphylococcus (GC 4548) ([3]; strain GC 4548): 2 µg/mL (≈ 1.44 µM)
MIC Coagulase Negative Staphylococcus (GC 4549) ([3]; strain GC 4549): 2 µg/mL (≈ 1.44 µM)
MIC Coagulase Negative Staphylococcus (GC 4551) ([3]; strain GC 4551): 4 µg/mL (≈ 2.87 µM)
MIC Staphylococcus aureus-SMITH (GC 4543) ([3]; strain SMITH GC 4543): 4 µg/mL (≈ 2.87 µM)
MIC Streptococcus agalactiae (GC 4564) [4]: 1 µg/mL (≈ 0.718 µM)
MIC Streptococcus pyogenes (ID-3187) ([4]; strain ID-3187): 1 µg/mL (≈ 0.718 µM)
SMILES: CC(C)CCC(=O)OC1C(OC2C(CO)OC(Oc3ccc(CC4NC(=O)C(C(C)c5ccccc5)NC(=O)CNC(=O)C(CO)NC(=O)C(C(O)C5CNC(=N)N5C5OC(CO)C(O)C(O)C5O)NC(=O)C(C(O)C5CNC(=N)N5)NC4=O)cc3)C(O)C2O)OC(CO)C(O)C1O (stereo not drawn) [Example 270a, Cyclo[glycyl-β-methylphenylalanyl-O-[4-O-[2-O-(4-methylventanovl)hexopyranosyl]-hexopyranosyl]tyrosyl-3-(2-iminoimidazolidin-4-yl)seryl-3-(3-hexopyranosyl-2-iminoimidazolidin-4-yl)serylseryl]]
MIC Staphylococcus haemolyticus (GC 4546) [3]: 2 µg/mL (≈ 1.44 µM)
MIC Staphylococcus haemolyticus (GC 4546) ([3]; strain GC 4546): 2 µg/mL (≈ 1.44 µM)

Source: patent publication US6914045B2, “Glycopeptide antibiotics” (Wyeth Holdings Corporation, priority 2001, dated 2005)
